In ChEMBL document CHEMBL5360598, “An ECD and NMR/DP4+ Computational Pipeline for Structure Revision and Elucidation of Diphenazine-Based Natural Products” (J Nat Prod, 2023):
pEC50: −log10 of the molar value. The source made the active and inactive calls. The rule behind the calls is not given here.

How the values were obtained:
[1] = molecular target: Eukaryotic translation initiation factor 4E/Eukaryotic translation initiation factor 4E-binding protein 1 (Homo sapiens, UniProt P06730+Q13541); assay: Inhibition of eIF4E-4E-BP1 (unknown origin) interaction by cat-ELCCA assay; format: protein assay; conditions: for pEC50: read-out: EC50
[2] = molecular target: Eukaryotic translation initiation factor 4E (Homo sapiens) (UniProt P06730); assay: Binding affinity to eIF4E in HEK293 cell lysate assessed as thermal stability at 25 uM at 42 to 53 degreeC by CETSA; format: subcellular
MIA PaCa-2 = assay: Antiproliferative activity against human MIA PaCa-2 cells by Cell Titer Glo assay; format: functional, cell-based

Sequence of Eukaryotic translation initiation factor 4E/Eukaryotic translation initiation factor 4E-binding protein 1 (P06730 whole entry): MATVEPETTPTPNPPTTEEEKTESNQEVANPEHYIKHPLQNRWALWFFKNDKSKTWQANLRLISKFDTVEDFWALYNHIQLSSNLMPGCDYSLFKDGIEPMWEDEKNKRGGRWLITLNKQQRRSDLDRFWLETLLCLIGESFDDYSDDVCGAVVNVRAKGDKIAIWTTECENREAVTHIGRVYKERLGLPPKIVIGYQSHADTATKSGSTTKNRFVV
Sequence of Eukaryotic translation initiation factor 4E/Eukaryotic translation initiation factor 4E-binding protein 1 (Q13541 whole entry): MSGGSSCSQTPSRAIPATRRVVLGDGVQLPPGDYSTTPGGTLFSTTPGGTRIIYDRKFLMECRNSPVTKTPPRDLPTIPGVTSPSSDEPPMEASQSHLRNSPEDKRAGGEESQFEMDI
Sequence of Eukaryotic translation initiation factor 4E (Homo sapiens) (P06730 whole entry): as the sequence (P06730 whole entry) above

Compound	pEC50 [1]	also measured
O=C(O)c1cc2c(c3nc4c(O)cccc4nc13)[C@@H]1Cc3nc4cccc(O)c4nc3[C@@H](O)[C@@H]1O2 [IZUMIPHENAZINE A]	3.62	–
O=C(O)c1ccc(O)c2nc3c4c(ccc3nc12)[C@@H]1Cc2nc3cccc(O)c3nc2[C@H](O4)[C@H]1O	3.51	–
O=C(O)c1ccc(=O)c2nc3c4c(ccc3[nH]c1-2)[C@@H]1Cc2nc3cccc(O)c3nc2[C@H](O4)[C@H]1O	4.17	–
Oc1cccc2nc3c(O)cccc3nc12	–	EC50 [1]: Not Active
O=C(O)c1cc2c(c3nc4c(O)cccc4nc13)[C@@H]1Cc3nc4cccc(O)c4nc3[C@H](O2)[C@H]1O	3.59	–
O=C(O)c1cc2c(c3nc4c(O)cccc4nc13)O[C@@H]1[C@H](O)c3nc4cccc(O)c4nc3C[C@H]21	5.11	Activity [2]: Active; Activity (MIA PaCa-2): inactive
O=C(O)c1cc2c(c3nc4c(O)cccc4nc13)[C@@H]1Cc3nc4cccc(O)c4nc3[C@@](O)(C1)O2	–	EC50 [1]: Not Active
